According to patent US20050209195A1, “Indolinone derivatives” (Cell Therapeutics Europe S.r.I, priority 2004, published 2005):

Assays:
FGF-R1 = FGF-R1 (Homo sapiens, UniProt P11362); conditions: cited from earlier work
Met = Met (Homo sapiens, UniProt P08581); conditions: cited from earlier work
[1] = tested on: tyrosine kinases Ret/MEN2A, Ret/MEN2B, Met, PDGF-R, FGF-R1, FGF-R3 and Kit; conditions: cited from earlier work
[2] = tested on: Ret/MEN2A (mutC634R and mutC634W); conditions: cited from earlier work
Kit (c-Kit and mutΔ559) = conditions: cited from earlier work
[3] = target: T1, Human cKit Tyrosine Kinase Receptor (human cKit RTK-catalytic domain) (Homo sapiens, UniProt P10721); test: DELFIA cKit Tyrosine Kinase Assay (cell-free); format: biochemical; conditions: cell-free DELFIA, 25 ng cKit TKR, 150 μM ATP, 20 minutes at 30° C.; read-out: IC50
T1 construct: human cKit RTK-catalytic domain; purchased Panvera-Invitrogen P3080
T1 sequence (P10721 589-937 limits assumed): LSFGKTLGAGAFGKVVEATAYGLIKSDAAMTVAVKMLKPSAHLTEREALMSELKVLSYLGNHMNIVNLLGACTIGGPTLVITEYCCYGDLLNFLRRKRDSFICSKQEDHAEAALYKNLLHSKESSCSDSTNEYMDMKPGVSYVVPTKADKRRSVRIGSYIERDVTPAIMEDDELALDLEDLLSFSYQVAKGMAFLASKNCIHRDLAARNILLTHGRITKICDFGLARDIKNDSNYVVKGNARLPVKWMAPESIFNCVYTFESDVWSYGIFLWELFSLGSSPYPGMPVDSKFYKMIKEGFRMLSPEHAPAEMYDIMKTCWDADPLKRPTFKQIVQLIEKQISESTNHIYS
Protocol: The compounds of the invention were tested with a dedicated cell-free kinase assay for the evaluation of the inhibiting activity on tyrosine kinases.
In more detail, the assay was a DELFIA™ (Dissociation Enhanced Time-Resolved Fluorometric Assay) Tyrosine Kinase Assay™ (PerkinElmer), a highly sensitive, reproducible ELISA assay that allows to evaluate the activity of a tyrosine kinase.
Human cKit Tyrosine Kinase Receptor (human cKit RTK-catalytic domain), commercially available from Panvera-Invitrogen (Cat. N^o. P3080), was used as the tyrosine kinase.
After 1 hour incubation at room temperature and three washings with 1×DELFIA Wash Buffer (PerkinElmer), the phosphotyrosine residues of the acceptor were detected with an europium-labelled anti-phosphotyrosine monoclonal antibody (DELFIA Eu-N1 labelled anti-phosphotyrosine antibody PT66, PerkinElmer) and, after a further hour incubation at room temperature and three washings with 1×DELFIA Wash Buffer, overall phosphorylation of biotinylated polyGAT was determined by addition of Enhancement Solution (PerkinElmer) and fluorimetric analysis of the plates (α-Fusion FP HT, PerkinElmer) in the “Time-Resolved Fluorescence” mode.

[4] = tested on: cells transformed by Ret/MEN2A, Ret/MEN2B, Met, PDGF-R, FGF-R1, FGF-R3 and Kit; conditions: cited from earlier work
[5] = tested on: NIH3T3^MEN2A(C634R) cells; test: Reversal of morphologically transformed phenotype, contrast phase microscopy, 24 h; format: cell-based, murine; conditions: 24 h treatment; for minimal effective concentration: Mus musculus, NIH3T3MEN2A, read-out: Morphology a 24 h: concentration from which reversal was observed
Protocol: (§1) NIH3T3 Murine fibroblasts and the transfected line NIH3T3^MEN2A(C634R) were treated with increasing concentrations of the compounds of the invention for 72 h. Survival curves were obtained by Coulter Counter cell count. IC50s calculated from said curves are reported in Table 9: the higher sensitivity of the oncoprotein-expressing cell line is evident. The reversal of the morphologically transformed phenotype of NIH3T3^MEN2A (C634R) cells in the presence of the compounds of the invention was evaluated by contrast phase microscopy after 24 h treatment and photographically documented.

[6] = tested on: NIH3T3 cells transformed by oncoprotein Ret/ptc1; conditions: cited from earlier work
[7] = tested on: NIH3T3^MEN2A(C634R) cells; test: Survival curves by Coulter Counter cell count, 72 h; format: cell-based, murine; conditions: Mus musculus, NIH3T3MEN2A, 72 h treatment, read-out: Cont at 72 h IC50
Protocol: as §1

PDGF-R = conditions: cited from earlier work
Ret/MEN2B (mutM918T) = Ret/MEN2B (mutM918T) (Homo sapiens, UniProt P07949, M918T); conditions: cited from earlier work
Chain of Ret/MEN2B (mutM918T) (P07949 29-1114 M918T): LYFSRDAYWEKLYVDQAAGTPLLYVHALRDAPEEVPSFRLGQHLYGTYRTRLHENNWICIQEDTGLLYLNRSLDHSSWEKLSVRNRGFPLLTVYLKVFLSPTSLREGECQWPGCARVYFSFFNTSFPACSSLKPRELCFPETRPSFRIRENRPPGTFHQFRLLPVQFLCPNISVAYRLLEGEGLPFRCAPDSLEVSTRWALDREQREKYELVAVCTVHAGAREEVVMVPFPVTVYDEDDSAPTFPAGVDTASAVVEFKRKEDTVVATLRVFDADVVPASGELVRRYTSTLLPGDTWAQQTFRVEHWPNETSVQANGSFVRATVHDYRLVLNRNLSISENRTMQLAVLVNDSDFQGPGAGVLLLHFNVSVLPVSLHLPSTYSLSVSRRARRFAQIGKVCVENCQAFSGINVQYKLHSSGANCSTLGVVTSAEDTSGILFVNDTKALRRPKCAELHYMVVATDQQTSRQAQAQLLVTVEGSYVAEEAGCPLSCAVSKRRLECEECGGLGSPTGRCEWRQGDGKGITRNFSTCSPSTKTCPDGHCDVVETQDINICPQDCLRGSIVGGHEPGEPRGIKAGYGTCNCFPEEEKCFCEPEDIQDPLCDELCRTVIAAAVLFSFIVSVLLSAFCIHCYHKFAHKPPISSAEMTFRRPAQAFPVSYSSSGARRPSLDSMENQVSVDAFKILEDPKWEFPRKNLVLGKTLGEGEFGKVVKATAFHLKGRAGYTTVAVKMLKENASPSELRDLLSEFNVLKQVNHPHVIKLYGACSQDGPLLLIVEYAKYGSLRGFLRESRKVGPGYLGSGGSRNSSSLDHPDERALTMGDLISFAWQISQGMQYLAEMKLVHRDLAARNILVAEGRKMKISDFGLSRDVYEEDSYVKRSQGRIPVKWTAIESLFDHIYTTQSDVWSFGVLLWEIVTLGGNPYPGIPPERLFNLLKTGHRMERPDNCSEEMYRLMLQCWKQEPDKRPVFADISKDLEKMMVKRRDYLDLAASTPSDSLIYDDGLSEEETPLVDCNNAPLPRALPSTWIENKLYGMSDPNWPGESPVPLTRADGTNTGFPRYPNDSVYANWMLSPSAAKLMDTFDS

FGF-R3 = FGF-R3 (Homo sapiens, UniProt P22607); conditions: cited from earlier work
Chain of FGF-R3 (P22607 23-806, species assumed): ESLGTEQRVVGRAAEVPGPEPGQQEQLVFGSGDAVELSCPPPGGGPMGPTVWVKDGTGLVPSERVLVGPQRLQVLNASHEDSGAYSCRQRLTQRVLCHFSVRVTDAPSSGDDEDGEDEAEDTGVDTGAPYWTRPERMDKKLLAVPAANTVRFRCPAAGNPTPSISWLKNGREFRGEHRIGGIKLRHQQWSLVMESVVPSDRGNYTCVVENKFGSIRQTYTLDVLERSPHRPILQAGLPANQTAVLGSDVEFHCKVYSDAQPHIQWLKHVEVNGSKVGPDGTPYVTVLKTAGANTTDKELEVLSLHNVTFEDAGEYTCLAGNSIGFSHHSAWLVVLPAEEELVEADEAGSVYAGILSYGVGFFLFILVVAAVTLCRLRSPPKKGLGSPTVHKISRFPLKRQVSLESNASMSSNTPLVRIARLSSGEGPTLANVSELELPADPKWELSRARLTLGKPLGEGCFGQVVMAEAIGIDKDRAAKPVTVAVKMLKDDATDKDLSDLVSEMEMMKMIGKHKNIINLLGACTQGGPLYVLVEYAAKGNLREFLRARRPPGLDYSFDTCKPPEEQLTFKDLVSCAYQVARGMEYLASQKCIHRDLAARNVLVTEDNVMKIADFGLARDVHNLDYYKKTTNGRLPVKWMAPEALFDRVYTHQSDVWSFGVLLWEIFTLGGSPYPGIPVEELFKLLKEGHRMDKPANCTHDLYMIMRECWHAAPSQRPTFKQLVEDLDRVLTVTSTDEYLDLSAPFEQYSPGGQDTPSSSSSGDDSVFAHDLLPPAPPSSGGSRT

[8] = target: T2, human Ret TKR-catalytic domain (Homo sapiens, UniProt P07949); test: DELFIA Ret Kinase Assay (cell-free); format: biochemical; conditions: cell-free DELFIA, 50 ng Ret TKR, 3 μM ATP, 10 min. at 30° C.; read-out: IC50
T2 construct: human Ret TKR-catalytic domain; purchased ProQinase
T2 sequence (P07949 724-1016 limits assumed): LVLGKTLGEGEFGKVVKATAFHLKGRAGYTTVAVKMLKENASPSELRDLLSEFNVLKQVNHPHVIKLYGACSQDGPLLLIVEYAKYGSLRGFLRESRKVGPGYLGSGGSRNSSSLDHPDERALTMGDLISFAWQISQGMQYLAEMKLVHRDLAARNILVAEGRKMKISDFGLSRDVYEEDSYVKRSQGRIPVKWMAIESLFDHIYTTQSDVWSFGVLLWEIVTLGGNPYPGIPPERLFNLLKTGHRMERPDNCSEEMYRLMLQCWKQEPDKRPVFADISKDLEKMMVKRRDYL
Protocol: In order to evidence and quantify inhibitory activity on Ret tyrosine kinase, the most representative compounds of the invention were tested with a dedicated DELFIA kinase assay, using a human tyrosine-kinase receptor (Ret TKR) recombinant form (human Ret TKR-catalytic domain) available from ProQinase as the tyrosine kinase.
After 10 min. incubation at 30° C., the kinase reactions were worked up as in the DELFIA cKit Kinase Assay.

Chain of FGF-R1 (P11362 22-822, species assumed): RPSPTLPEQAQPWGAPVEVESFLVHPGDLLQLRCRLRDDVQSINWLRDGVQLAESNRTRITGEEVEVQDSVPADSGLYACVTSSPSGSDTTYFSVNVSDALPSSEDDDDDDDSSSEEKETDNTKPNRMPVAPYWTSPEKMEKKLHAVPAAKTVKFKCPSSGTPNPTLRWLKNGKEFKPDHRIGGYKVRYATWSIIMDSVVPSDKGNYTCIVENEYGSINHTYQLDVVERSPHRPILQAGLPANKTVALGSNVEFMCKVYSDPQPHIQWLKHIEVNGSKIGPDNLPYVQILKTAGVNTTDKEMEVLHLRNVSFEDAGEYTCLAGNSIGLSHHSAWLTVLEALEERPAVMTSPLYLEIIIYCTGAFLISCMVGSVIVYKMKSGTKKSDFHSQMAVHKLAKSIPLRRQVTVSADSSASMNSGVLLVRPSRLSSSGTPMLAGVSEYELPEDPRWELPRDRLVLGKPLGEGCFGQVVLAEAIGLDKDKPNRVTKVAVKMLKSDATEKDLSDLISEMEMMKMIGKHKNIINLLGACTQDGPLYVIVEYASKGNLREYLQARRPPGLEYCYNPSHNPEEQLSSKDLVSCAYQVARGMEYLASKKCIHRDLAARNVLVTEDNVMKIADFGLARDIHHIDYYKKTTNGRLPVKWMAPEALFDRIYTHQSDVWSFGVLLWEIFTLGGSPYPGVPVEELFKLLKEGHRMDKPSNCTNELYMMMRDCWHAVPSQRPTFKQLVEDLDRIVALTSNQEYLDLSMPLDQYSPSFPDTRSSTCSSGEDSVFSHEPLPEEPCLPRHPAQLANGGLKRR
Chain of Met (P08581 25-1390): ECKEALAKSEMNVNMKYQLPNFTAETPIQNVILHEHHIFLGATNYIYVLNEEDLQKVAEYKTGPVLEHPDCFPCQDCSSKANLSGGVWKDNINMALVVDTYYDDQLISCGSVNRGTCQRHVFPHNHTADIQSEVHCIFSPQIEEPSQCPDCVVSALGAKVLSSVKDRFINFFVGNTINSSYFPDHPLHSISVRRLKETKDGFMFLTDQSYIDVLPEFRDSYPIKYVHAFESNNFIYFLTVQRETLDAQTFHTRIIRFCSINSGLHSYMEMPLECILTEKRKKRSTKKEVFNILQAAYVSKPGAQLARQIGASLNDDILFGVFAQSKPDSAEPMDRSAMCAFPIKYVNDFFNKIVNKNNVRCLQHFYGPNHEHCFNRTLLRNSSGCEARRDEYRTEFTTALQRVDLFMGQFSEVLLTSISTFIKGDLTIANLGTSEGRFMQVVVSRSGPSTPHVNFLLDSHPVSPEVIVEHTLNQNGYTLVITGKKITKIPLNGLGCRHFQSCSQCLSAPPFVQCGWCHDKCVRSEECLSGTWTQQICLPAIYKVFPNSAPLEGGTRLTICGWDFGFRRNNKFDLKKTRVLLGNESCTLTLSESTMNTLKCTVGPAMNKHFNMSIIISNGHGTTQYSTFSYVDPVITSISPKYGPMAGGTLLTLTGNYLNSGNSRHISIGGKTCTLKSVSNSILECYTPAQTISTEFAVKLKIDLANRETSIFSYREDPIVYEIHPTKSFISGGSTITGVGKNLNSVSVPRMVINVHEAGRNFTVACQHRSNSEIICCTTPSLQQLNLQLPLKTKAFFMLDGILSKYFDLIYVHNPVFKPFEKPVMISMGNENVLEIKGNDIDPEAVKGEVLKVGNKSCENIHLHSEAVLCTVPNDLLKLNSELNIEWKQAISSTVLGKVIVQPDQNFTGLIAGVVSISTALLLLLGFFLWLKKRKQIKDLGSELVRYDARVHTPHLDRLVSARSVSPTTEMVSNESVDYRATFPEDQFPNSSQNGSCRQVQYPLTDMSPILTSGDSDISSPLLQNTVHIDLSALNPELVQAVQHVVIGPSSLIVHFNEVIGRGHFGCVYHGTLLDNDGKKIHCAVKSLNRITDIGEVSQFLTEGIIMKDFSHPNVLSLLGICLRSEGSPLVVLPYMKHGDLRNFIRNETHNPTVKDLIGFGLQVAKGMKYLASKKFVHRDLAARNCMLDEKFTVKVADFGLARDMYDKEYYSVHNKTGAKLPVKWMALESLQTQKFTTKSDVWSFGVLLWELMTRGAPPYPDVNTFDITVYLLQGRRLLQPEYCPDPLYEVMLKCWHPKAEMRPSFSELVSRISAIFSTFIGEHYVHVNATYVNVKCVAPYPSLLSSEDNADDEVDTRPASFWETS

Row | SMILES | inhibition of self-phosphorylation (FGF-R1) | inhibition of self-phosphorylation (Met) | down regulation of tyrosine kinase expression [1] | inhibition of self-phosphorylation [2] | inhibition of self-phosphorylation (Kit (c-Kit and mutΔ559)) | IC50 [3] | restoring the phenotype of transformed cells [4] | Morphology a 24 h [5] | minimal effective concentration [5] | restoring the normal phenotype in transformed cells [6] | IC50 [7] | inhibition of self-phosphorylation (PDGF-R) | inhibition of self-phosphorylation (Ret/MEN2B (mutM918T)) | inhibition of self-phosphorylation (FGF-R3) | IC50 [8] | melting point
1 | COc1cc2c(cc1OC)/C(=C\c1ccc(O)cc1)C(=O)N2 [(E)-1,3-dihydro-4-hydroxybenzylidene-5,6-dimethoxy-1H-indol-2-one] | fully inhibiting | fully inhibiting | down regulating their expression | fully inhibiting | fully inhibiting | 2.37 ± 0.68 µM | restoring the phenotype of cells transformed by them | REVERSAL | ≥ 6 µM | restoring the normal phenotype | 3.6 ± 1.6 µM | fully inhibiting | fully inhibiting | fully inhibiting | 3.67 µM | –
2 | COc1cc2c(cc1OC)/C(=C\c1ccc(OC(=O)N3CCN(C)CC3)cc1)C(=O)N2 [Example B.1, (E)-4-methyl-piperazine-1-carboxylic Acid, 4-(5,6-dimethoxy-2-oxo-1,2-dihydro-indol-3-ylidenemethyl)phenyl Ester] | – | – | – | – | – | 4.46 µM | – | REVERSAL | ≥ 10 µM | – | 2.8 ± 0.5 µM | – | – | – | 13.3 µM | 198 to 200 °C
3 | COc1cc2c(cc1OC)/C(=C\c1ccc(OP(=O)(O)O)cc1)C(=O)N2 [Example C.1, (E)-4-(5,6-dimethoxy-2-oxo-1,2-dihydro-indol-3-ylidenemethyl)phenyl Phosphoric Acid] | – | – | – | – | – | 51.8 µM | – | REVERSAL | ≥ 10 µM | – | 3.9 ± 0.25 µM | – | – | – | 2.61 µM | 218 to 220 °C
4 | COc1cc2c(cc1OC)/C(=C\c1ccc(OC(=O)N3CCC(N4CCCCC4)CC3)cc1)C(=O)N2 [B.5, 4-(1′-Piperidinyl)-1-piperidinecarboxylic Acid, (E)-4-(5,6-dimethoxy-2-oxo-1,2-dihydro-indol-3-ylidenemethyl)phenyl Ester] | – | – | – | – | – | 4.68 µM | – | REVERSAL | ≥ 5 µM | – | 2 ± 0.7 µM | – | – | – | 2.17 µM | 235 to 237 °C
5 | COc1cc2c(cc1OC)/C(=C\c1ccc(OC(=O)N3CCN(CCO)CC3)cc1)C(=O)N2 [B.3, 4-(2-Hydroxyethyl)piperazine-1-carboxylic Acid, (E)-4-(5,6-dimethoxy-2-oxo-1,2-dihydro-indol-3-ylidenemethyl)phenyl Ester] | – | – | – | – | – | 6.74 µM | – | REVERSAL | – | – | 3.1 ± 1.3 µM | – | – | – | 1.77 µM | 217 to 220 °C
